In US20020061840A1, “Tripeptide compounds useful as selective inhibitors of aminopeptidase A and corresponding pharmaceutical compositions” (priority 2000, published 2002) one finds Ki data, which are given here for six compounds.

Usually Ki stands for the equilibrium dissociation constant of an inhibitor or competing ligand from its target.

The target in the experiment is T1, Aminopeptidase N (Sus scrofa, UniProt P15145).
T1 construct: Aminopeptidase N purified from pig's kidney; purchased Böehringer Mannheim (Meylan, France); host or cells: pig's kidney
T1 sequence (P15145 1-963): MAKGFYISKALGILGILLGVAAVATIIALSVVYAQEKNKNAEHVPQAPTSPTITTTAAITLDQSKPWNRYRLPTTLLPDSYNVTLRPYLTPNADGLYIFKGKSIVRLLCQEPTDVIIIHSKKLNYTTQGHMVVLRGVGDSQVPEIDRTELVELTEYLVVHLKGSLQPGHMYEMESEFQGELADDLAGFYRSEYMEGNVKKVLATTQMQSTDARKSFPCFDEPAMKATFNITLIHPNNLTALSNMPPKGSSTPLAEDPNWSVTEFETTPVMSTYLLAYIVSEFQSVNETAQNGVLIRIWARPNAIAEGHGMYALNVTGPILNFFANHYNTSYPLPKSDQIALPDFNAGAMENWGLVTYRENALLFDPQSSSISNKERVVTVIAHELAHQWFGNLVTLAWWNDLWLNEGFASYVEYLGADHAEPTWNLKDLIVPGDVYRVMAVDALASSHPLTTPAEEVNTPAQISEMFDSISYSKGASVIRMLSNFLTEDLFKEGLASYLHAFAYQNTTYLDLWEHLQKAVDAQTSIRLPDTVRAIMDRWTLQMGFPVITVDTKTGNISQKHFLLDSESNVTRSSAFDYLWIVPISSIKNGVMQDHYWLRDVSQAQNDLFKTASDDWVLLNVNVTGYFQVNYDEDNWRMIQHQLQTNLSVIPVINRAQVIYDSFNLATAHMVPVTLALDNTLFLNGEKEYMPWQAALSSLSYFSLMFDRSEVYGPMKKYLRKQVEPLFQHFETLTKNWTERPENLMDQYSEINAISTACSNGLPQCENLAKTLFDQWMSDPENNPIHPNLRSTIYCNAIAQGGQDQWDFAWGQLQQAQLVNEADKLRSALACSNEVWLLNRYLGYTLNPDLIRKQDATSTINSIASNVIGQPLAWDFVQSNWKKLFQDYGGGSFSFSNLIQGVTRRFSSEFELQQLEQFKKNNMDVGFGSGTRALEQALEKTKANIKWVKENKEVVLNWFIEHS
Description: In vitro inhibiting power on aminopeptidase N (Ala-Na substrate). Format: biochemical. The conditions noted are these: APN purified from pig's kidney, 200 μM Ala-Na, 37° C., Tris HCl pH 7.4. As to the method:
b)) In vitro study of the inhibiting power of the synthesised compounds on aminopeptidase N.
1°) Source of the Enzyme.
Aminopeptidase N purified from pig's kidney is marketed by Böehringer Mannheim (Meylan, France).
The APN is incubated for 10 min at 37° C. in the absence or in the presence of increasing concentrations of inhibitors in a total volume of 100 μl in Tris HCl buffer (50 mM, pH =7.4. 200 μM of Ala-Na are added and the whole thing is incubated for 30 min at 37° C. The reaction is stopped by the addition of 10 μl of CH3COO—Na 1M (pH=4.2). The absorption is measured at 400 nm and compared with that of a standard range of 2-naphthyiamine.
`CCC(C)C(NC(=O)C(S)C(N)CCP(=O)(O)O)C(=O)NC(CCC(=O)O)C(=O)O` (single isomer, unassigned) [Example 4A]: the Ki is > 5 µM.

In the case of `CCC(C)C(NC(=O)C(S)C(N)CCP(=O)(O)O)C(=O)NC(CCC(=O)O)C(=O)O` (single isomer, unassigned) [Example 4B], the Ki was > 5 µM.

`CCC(C)C(NC(=O)C(S)C(N)CCS(=O)(=O)O)C(=O)NC(CCC(=O)O)C(N)=O` (single isomer, unassigned) [Example 8A]: the Ki was > 50 µM.

As to `CCC(C)C(NC(=O)C(S)C(N)CCS(=O)(=O)O)C(=O)NC(CCC(=O)O)C(N)=O` (single isomer, unassigned) [Example 8B], the Ki was > 50 µM.

As to `CC[C@H](C)[C@H](NC(=O)[C@@H](S)[C@H](N)CCC(=O)O)C(=O)N1CC[C@@H](C(=O)O)[C@H]1C(=O)O` [Example 3A, [[(2S ,3R)-3-amino-5-carboxy-2-mercapto]pentanoyl]-LIIe-L.(3R)(3-COOH)Pro-OH], the Ki was > 5 µM.

Regarding `CC[C@H](C)[C@H](NC(=O)[C@H](S)[C@H](N)CCC(=O)O)C(=O)N1CC[C@@H](C(=O)O)[C@H]1C(=O)O` [Example 3B, [[(2R,3R), 3-amino-5-carboxy-2-mercapto]-pentanoyl]-L.IIe-L.(3R)(3-COOH)Pro-OH], the inhibition constant (Ki) is > 5 µM.
